Measured values as given in patent US7026349B2, “Sulfonamides” (SmithKline Beecham Corporation, priority 2001, dated 2006).

Molecular target: T1, human and rat GPR-14 (UniProt Q9UKP6)
T1 sequence (Q9UKP6 1-389): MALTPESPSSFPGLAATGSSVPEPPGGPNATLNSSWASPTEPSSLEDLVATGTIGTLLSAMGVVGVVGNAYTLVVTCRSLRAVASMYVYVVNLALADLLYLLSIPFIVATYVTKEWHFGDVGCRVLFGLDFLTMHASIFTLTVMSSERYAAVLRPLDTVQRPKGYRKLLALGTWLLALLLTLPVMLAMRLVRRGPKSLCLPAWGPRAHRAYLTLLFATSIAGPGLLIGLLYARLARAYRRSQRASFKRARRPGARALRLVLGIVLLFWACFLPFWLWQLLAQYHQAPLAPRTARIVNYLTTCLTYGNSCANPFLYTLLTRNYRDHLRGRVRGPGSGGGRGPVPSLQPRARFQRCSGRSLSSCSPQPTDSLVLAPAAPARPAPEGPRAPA
Test: Radioligand binding ([125I] h-U-II) to HEK-293 cell membranes containing cloned GPR-14
Conditions: stable cloned GPR-14, 200 pM [125I] h-U-II, species of receptor not given

COc1cc(Br)c(S(=O)(=O)Nc2ccc(Cl)c(O[C@H]3CCN(C)C3)c2)cc1OC [Example 10, 2-Bromo-N-[4-chloro-3-((S)-1-methyl-pyrrolidin-3-yloxy)-phenyl]-4,5-dimethoxy-benzenesulfonamide]
Ki: 270 nM
